Results reported in US20210145804A1, “COMPOSITIONS AND METHODS FOR TREATING DISORDERS AMELIORATED BY MUSCARINIC RECEPTOR ACTIVATION” (Karuna Therapeutics, Inc., priority 2019, published 2021).
Marks after values point to notes of the source that are not given here.

How the values were obtained:
[1] = tested on: normal healthy volunteers; set-up: species or system human; conditions: in vivo
Procedure: A Phase I, double-blind, randomized multiple-dose pilot study was conducted with xanomeline administered alone compared to xanomeline administered with trospium chloride in normal healthy volunteers. […]

Alzheimer's disease = conditions: 26-week study of Alzheimer's disease; cited from earlier work
[2] = KAR-001 Phase I study: xanomeline and trospium plasma pharmacokinetics; assay type: in vivo, human
[3] = Mutagenic potential of xanomeline synthesis intermediate

SMILES: CCCCCCOc1nsnc1C1=CCCN(C)C1 [Xanomeline + placebo, xanomeline]
- AE leading to discontinuation (D/C) [1]: 2 (6.1) n (%)
- AE leading to discontinuation (D/C): # events [1]: 2
- Any SAE [1]: 0 (0.0) n (%)
- Any TEAE: # events [1]: 108
- Any cholinergic TEAEs, number of individual occurrences [1]: 64 #
- Any clinically significant TEAE [1]: 5 (15.2) n (%)
- Any clinically significant TEAE: # events [1]: 5
- Any study drug-related TEAE [1]: 23 (69.7) n (%)
- Any study drug-related TEAE: # events [1]: 92
- Cholinergic adverse events, Any TEAEs: # of events [1]: 64
- Cholinergic adverse events, Any TEAEs: subjects [1]: 21 (63.6%) n [%]
- Cholinergic adverse events, Diarrhea: # of events [1]: 8
- Cholinergic adverse events, Diarrhea: subjects [1]: 7 (21.2%) n [%]
- Cholinergic adverse events, Nausea: # of events [1]: 11
- Cholinergic adverse events, Nausea: subjects [1]: 8 (24.2%) n [%]
- Cholinergic adverse events, Salivation: # of events [1]: 16
- Cholinergic adverse events, Salivation: subjects [1]: 12 (36.4%) n [%]
- Cholinergic adverse events, Sweating: # of events [1]: 24
- Cholinergic adverse events, Sweating: subjects [1]: 16 (48.5%) n [%]
- Cholinergic adverse events, Vomiting: # of events [1]: 5
- Cholinergic adverse events, Vomiting: subjects [1]: 5 (15.2%) n [%]
- Diarrhea, incidence [1]: 7 (20.6) n (%)
- Diarrhea, number of individual occurrences [1]: 8 #
- Gastrointestinal disorders (cholinergic TEAE), incidence [1]: 18 (52.9) n (%)
- Gastrointestinal disorders (cholinergic TEAE), number of individual occurrences [1]: 40 #
- Hyperhidrosis, incidence [1]: 16 (47.1) n (%)
- Hyperhidrosis, number of individual occurrences [1]: 24 #
- Incidence rate of sweating (hyperhidrosis) [1]: 48.5%
- Max Severity of TEAE: Mild [1]: 22 (66.7) N/A n (%)
- Max Severity of TEAE: Moderate [1]: 5 (15.2) N/A n (%)
- Max Severity of TEAE: Severe [1]: 0 (0.0) n (%)
- Max severity of study drug-related TEAE: Mild [1]: 19 (57/6) N/A n (%)
- Max severity of study drug-related TEAE: Moderate [1]: 4 (12.1) N/A n (%)
- Max severity of study drug-related TEAE: Severe [1]: 0 (0.0) N/A n (%)
- Nausea, incidence [1]: 8 (23.5) n (%)
- Nausea, number of individual occurrences [1]: 11 #
- Salivary hypersecretion, incidence [1]: 12 (35.3) n (%)
- Salivary hypersecretion, number of individual occurrences [1]: 16 #
- Skin and subcutaneous tissue disorders (cholinergic TEAE), incidence [1]: 16 (47.1) n (%)
- Skin and subcutaneous tissue disorders (cholinergic TEAE), number of individual occurrences [1]: 24 #
- Study drug related AE leading to D/C [1]: 1 (3.0) n (%)
- Study drug related AE leading to D/C: # events [1]: 1
- Subjects reporting at least one cholinergic adverse event [1]: 63%
- Subjects who experienced syncope [1]: Two
- Subjects with any TEAE [1]: 27 (81.8) n (%)
- Subjects with any cholinergic TEAEs, incidence [1]: 21 (61.8) n (%)
- Vomiting, incidence [1]: 5 (14.7) n (%)
- Vomiting, number of individual occurrences [1]: 5 #
- Dropout rate (Alzheimer's disease): 56%

SMILES: O=C(O[C@H]1C[C@H]2CC[C@@H](C1)[N+]21CCCC1)C(O)(c1ccccc1)c1ccccc1 [trospium alone, trospium chloride]
- Trospium Tmax ([2]; KAR-001 Day 1, 20 mg trospium BID lead-in, median): 3.0 h
- Tmax ([2]; human, in vivo, 20 mg, KAR-001 Day 1, read-out: Trospium median Tmax): 3 h
- Cmax ([2]; human, in vivo, KAR-001 Day 1, 20 mg trospium BID lead-in, geometric mean): 0.722 ng/mL
- AUC(0-inf) ([2]; human, in vivo, KAR-001 Day 1, 20 mg trospium BID lead-in, geometric mean, read-out: Trospium AUC0-inf): 7.79 ng·h/mL
- AUC ([2]; human, in vivo, KAR-001 Day 1, 20 mg trospium BID lead-in, geometric mean, read-out: Trospium AUC0-tau): 5.03 ng·h/mL

SMILES: CCCCCCOc1nsnc1-c1ccc[n+](C)c1 [Compound V]
- Mutagenic potential [3]: negative
